# Experiments:
# [1] = tested on: E. faecium CIP 54.32; assay: MIC, microdilution method (9.1); assay type: cell-based, Enterococcus faecium; conditions: Enterococcus faecium, CIP54, 18 h, read-out: MIC
# Method: (§1) The microdilution method recommended by the Clinical and Laboratory Standard Institute [M07-A8, Vol. 29, No. 2] was used. The activity of indolic compounds was tested against 29 bacterial strains belonging to 17 different species and 12 different genera (Staphylococcus, Streptococcus, Enterococcus, Listeria, Bacillus, Haemophilus, Escherichia, Klebsiella, Enterobacter, Serratia, Pseudomonas, and Acinetobacter). Bacterial inocula were prepared in Mueller Hinton broth (MH2, bioMérieux, Marcy L'Etoile, France), supplemented with 10% sheep blood for fastidious species (i.e., Streptococcus pneumoniae and Haemophilus influenzae). They were dispensed in 96 well microtiter plates (5×10^5 CFU/ml of final inoculum). Indolic compounds were added to the wells as to obtain two-fold serial concentrations (0.50-128 mg/L of final concentrations). Plates were incubated at 37° C. in ambient air, or at 37° C. in 5% CO2 enriched atmosphere for fastidious species. […] Drug-free cultures served as growth controls. Cultures receiving gentamicin, ciprofloxacin or cefotaxime served as positive controls.
# [2] = tested on: E. faecalis ATCC 29212; assay: MIC, microdilution method (9.1); assay type: cell-based, Enterococcus faecalis; conditions: Enterococcus faecalis, ATCC29212, 18 h, read-out: MIC
# Method: as §1
# [3] = tested on: S. mitis CIP 103335; assay: MIC, microdilution method (9.1); assay type: cell-based, Streptococcus mitis; conditions: Streptococcus mitis, CIP103335, 18 h, read-out: MIC
# Method: as §1
# [4] = tested on: S. aureus ATCC 33592 (MRSA); assay: MIC, microdilution method (9.1); assay type: cell-based, Staphylococcus aureus; conditions: Staphylococcus aureus, read after 18 h, read-out: MIC
# Method: as §1
# [5] = tested on: S. aureus ATCC 9144; assay: MIC, microdilution method (9.1); assay type: cell-based, Staphylococcus aureus; conditions: Staphylococcus aureus, ATCC9144, read after 18 h, read-out: MIC
# Method: as §1
# [6] = tested on: S. aureus ATCC 25923; assay: MIC, microdilution method (9.1); assay type: cell-based, Staphylococcus aureus; conditions: Staphylococcus aureus, ATCC25923, read after 18 h, read-out: MIC
# Method: as §1
# [7] = tested on: S. aureus CIP 103428; assay: MIC, microdilution method (9.1); assay type: cell-based, Staphylococcus aureus; conditions: Staphylococcus aureus, CIP103428, read after 18 h, read-out: MIC
# Method: as §1
# [8] = tested on: S. aureus SA-1199B; assay: MIC, microdilution method (9.1); assay type: cell-based, Staphylococcus aureus; conditions: Staphylococcus aureus, SA1199B, 18 h
# Method: as §1
# [9] = tested on: S. aureus CIP 65.6; assay: MIC, microdilution method (9.1); assay type: cell-based, Staphylococcus aureus; conditions: Staphylococcus aureus, CIP65, read after 18 h, read-out: MIC
# Method: as §1
# [10] = tested on: S. aureus CIP 65.25 (MRSA); assay: MIC, microdilution method (9.1); assay type: cell-based, Staphylococcus aureus; conditions: Staphylococcus aureus, read after 18 h, read-out: MIC
# Method: as §1
# [11] = tested on: S. aureus ATCC 6538; assay: MIC, microdilution method (9.1); assay type: cell-based, Staphylococcus aureus; conditions: Staphylococcus aureus, ATCC6538, read after 18 h, read-out: MIC
# Method: as §1
# [12] = tested on: S. aureus ATCC 29213; assay: MIC, microdilution method (9.1); assay type: cell-based, Staphylococcus aureus; conditions: Staphylococcus aureus, ATCC29213, read after 18 h, read-out: MIC
# Method: as §1
# [13] = tested on: S. aureus ATCC 106414 (VISA); assay: MIC, microdilution method (9.1); assay type: cell-based, Staphylococcus aureus; conditions: Staphylococcus aureus, read after 18 h, read-out: MIC
# Method: as §1
# [14] = tested on: S. pneumoniae ATCC 6303; assay: MIC, microdilution method (9.1); assay type: cell-based, Streptococcus pneumoniae; conditions: Streptococcus pneumoniae, ATCC6303, 10% sheep blood, 5% CO2, 18 h, read-out: MIC
# Method: as §1
# [15] = tested on: S. agalactiae (group B) ATCC 12400; assay: MIC, microdilution method (9.1); assay type: cell-based, Streptococcus agalactiae; conditions: Streptococcus agalactiae, ATCC12400, 18 h, read-out: MIC
# Method: as §1
# [16] = tested on: S. pyogenes (group A) CIP 104226; assay: MIC, microdilution method (9.1); assay type: cell-based, Streptococcus pyogenes; conditions: Streptococcus pyogenes, CIP104226, 18 h, read-out: MIC
# Method: as §1
# [17] = tested on: MRC5 (human lung fibroblast); assay: In vitro cytotoxicity; assay type: cell-based; conditions: read-out: % of cellular growth inhibition; for inhibition at 10 µM: 10^−5 M; for inhibition at 1 µM: 10^−6 M
# Method: (§2) In vitro cytotoxicity was assayed on three cell lines—KB (human mouth carcinoma), MCR5 (human lung fibroblast) and HCT116 (human colon tumor). Results are presented in table IV as % of cellular growth inhibition in presence of 10^−5 M and 10^−6 M of the tested bis-indolic derivatives.
# [18] = tested on: HCT116 (human colon tumor); assay: In vitro cytotoxicity; assay type: cell-based; conditions: read-out: % of cellular growth inhibition; for inhibition at 10 µM: HCT-116, 10^−5 M; for inhibition at 1 µM: HCT-116, 10^−6 M
# Method: as §2
# [19] = tested on: KB (human mouth carcinoma); assay: In vitro cytotoxicity; assay type: cell-based; conditions: read-out: % of cellular growth inhibition; for inhibition at 10 µM: 10^−5 M; for inhibition at 1 µM: 10^−6 M
# Method: as §2
# [20] = tested on: S. pneumoniae ATCC 49619; assay: MIC, microdilution method (9.1); assay type: cell-based; conditions: Streptococcus pneumoniae, ATCC49619, 10% sheep blood, 5% CO2, 18 h
# Method: as §1
# [21] = tested on: Enterobacter cloacae ATCC13047; assay: MIC, microdilution method (9.1); assay type: cell-based; conditions: 18 h
# Method: as §1
# [22] = tested on: Escherichia coli ATCC 25922; assay: MIC, microdilution method (9.1); assay type: cell-based; conditions: ATCC25922, 18 h
# Method: as §1
# [23] = tested on: Listeria innocua CIP 80.11; assay: MIC, microdilution method (9.1); assay type: cell-based; conditions: CIP80, 18 h, read-out: MIC
# Method: as §1
# [24] = tested on: Pseudomonas aeruginosa CIP 5933; assay: MIC, microdilution method (9.1); assay type: cell-based; conditions: CIP5933, 18 h, read-out: MIC
# Method: as §1
# [25] = tested on: Bacillus subtilis CIP 5262; assay: MIC, microdilution method (9.1); assay type: cell-based; conditions: CIP5262, 18 h, read-out: MIC
# Method: as §1
# [26] = tested on: Serratia marcescens CIP 103551; assay: MIC, microdilution method (9.1); assay type: cell-based; conditions: CIP103551, 18 h
# Method: as §1
# [27] = tested on: Klebsiella pneumoniae API ATCC 35657; assay: MIC, microdilution method (9.1); assay type: cell-based; conditions: ATCC35657, 18 h, read-out: MIC
# Method: as §1
# [28] = tested on: Acinetobacter baumanii ATCC 19606; assay: MIC, microdilution method (9.1); assay type: cell-based; conditions: Acinetobacter baumannii, ATCC19606, 18 h, read-out: MIC
# Method: as §1
# [29] = tested on: Haemophilus influenzae ATCC 49766; assay: MIC, microdilution method (9.1); assay type: cell-based; conditions: ATCC49766; Haemophilus influenzae ATCC 49766; 10% sheep blood, 5% CO2; 18 h; read-out: MIC
# Method: as §1
# [30] = tested on: S. epidermidis CIP 103627; assay: MIC, microdilution method (9.1); assay type: cell-based, Staphylococcus epidermidis; conditions: Staphylococcus epidermidis, CIP103627, read after 18 h, read-out: MIC
# Method: as §1
# [31] = tested on: S. epidermidis CIP 81.55; assay: MIC, microdilution method (9.1); assay type: cell-based, Staphylococcus epidermidis; conditions: Staphylococcus epidermidis, CIP81, read after 18 h, read-out: MIC
# Method: as §1
# [32] = tested on: S. epidermidis ATCC 12228; assay: MIC, microdilution method (9.1); assay type: cell-based, Staphylococcus epidermidis; conditions: Staphylococcus epidermidis, ATCC12228, read after 18 h, read-out: MIC
# Method: as §1
# [33] = tested on: HCT116 (human colon tumor); assay: In vitro cytotoxicity; assay type: cell-based; conditions: HCT-116, HCT116, from 100 μM to 0.005 μM in DMSO, duplicate
Compound,MIC [1],MIC [2],MIC [3],MIC [4],MIC [5],MIC [6],MIC [7],MIC [8],MIC [9],MIC [10],MIC [11],MIC [12],MIC [13],MIC [14],MIC [15],MIC [16],inhibition at 10 µM [17],inhibition at 1 µM [17],inhibition at 10 µM [18],inhibition at 1 µM [18],further results
"CC(C)(C)OC(=O)NCC(NC(=O)c1c[nH]c2cc(Cl)ccc12)c1c[nH]c2ccc(Cl)cc12 (centres unmarked) [Compound 6b, tert-Butyl 2-(5-chloro-1H-indol-3-yl)-2-(6-chloro-1H-indole-3-carboxamido)ethyl carbamate]",> 128 µg/mL,> 128 µg/mL,128 µg/mL,4 µg/mL,4 µg/mL,4 µg/mL,4 µg/mL,4 µg/mL,4 µg/mL,4 µg/mL,4 µg/mL,4 µg/mL,4 µg/mL,64 µg/mL,128 µg/mL,128 µg/mL,99 ± 1%,0%,97 ± 6%,0%,inhibition at 10 µM [19]: 92 ± 4%; inhibition at 1 µM [19]: 2%; MIC [20]: 64 µg/mL; MIC [21]: > 128 µg/mL; MIC [22]: > 128 µg/mL; MIC [23]: > 128 µg/mL; MIC [24]: > 128 µg/mL; MIC [25]: 64 µg/mL; MIC [26]: > 128 µg/mL; MIC [27]: > 128 µg/mL; MIC [28]: > 128 µg/mL; MIC [29]: > 128 µg/mL; MIC [30]: 8 µg/mL; MIC [31]: 4 µg/mL; MIC [32]: 4 µg/mL
"CC(C)(C)OC(=O)NCC(NC(=O)c1c[nH]c2ccc(Br)cc12)c1c[nH]c2ccccc12 (centres unmarked) [Compound 3c, tert-Butyl [2-(1H-indol-3-yl)-2-(5-bromo-1H-indol-3-yl-carboxamido)ethyl]carbamate]",> 128 µg/mL,> 128 µg/mL,64 µg/mL,8 µg/mL,8 µg/mL,8 µg/mL,8 µg/mL,8 µg/mL,8 µg/mL,8 µg/mL,8 µg/mL,8 µg/mL,8 µg/mL,32 µg/mL,64 µg/mL,64 µg/mL,16 ± 9%,0%,42 ± 3%,11%,IC50 ([33]; first value): 8.02 µM; IC50 ([33]; second value): 5.43 µM; inhibition at 10 µM [19]: 46 ± 8%; inhibition at 1 µM [19]: 0%; MIC [20]: 32 µg/mL; MIC [21]: > 128 µg/mL; MIC [22]: > 128 µg/mL; MIC [23]: > 128 µg/mL; MIC [24]: > 128 µg/mL; MIC [25]: 64 µg/mL; MIC [26]: > 128 µg/mL; MIC [27]: > 128 µg/mL; MIC [28]: > 128 µg/mL; MIC [29]: > 128 µg/mL; MIC [30]: 8 µg/mL; MIC [31]: 8 µg/mL; MIC [32]: 8 µg/mL
"CC(C)(C)OC(=O)NCC(NC(=O)c1c[nH]c2cc(Br)ccc12)c1c[nH]c2cc(Br)ccc12 (centres unmarked) [Compound 3i, tert-Butyl (2-(6-bromo-1H-indol-3-yl)-2-(6-bromo-1H-indolyl-3-carboxamido)ethyl)carbamate]",64 µg/mL,> 128 µg/mL,64 µg/mL,1 µg/mL,2 µg/mL,2 µg/mL,1 µg/mL,1 µg/mL,1 µg/mL,1 µg/mL,2 µg/mL,2 µg/mL,1 µg/mL,32 µg/mL,32 µg/mL,32 µg/mL,91 ± 7%,10%,91 ± 1%,4%,IC50 ([33]; first value): 1.9 µM; IC50 ([33]; second value): 2.1 µM; inhibition at 10 µM [19]: 100 ± 1%; inhibition at 1 µM [19]: 3%; MIC [20]: 32 µg/mL; MIC [21]: > 128 µg/mL; MIC [22]: > 128 µg/mL; MIC [23]: 32 µg/mL; MIC [24]: > 128 µg/mL; MIC [25]: 64 µg/mL; MIC [26]: > 128 µg/mL; MIC [27]: > 128 µg/mL; MIC [28]: > 128 µg/mL; MIC [29]: 16 µg/mL; MIC [30]: 2 µg/mL; MIC [31]: 2 µg/mL; MIC [32]: 2 µg/mL
"CC(C)(C)OC(=O)NCC(NC(=O)c1c[nH]c2ccc(Cl)cc12)c1c[nH]c2ccc(Cl)cc12 (centres unmarked) [Compound 6a, tert-Butyl 2-(5-chloro-1H-indol-3-yl)-2-(5-chloro-1H-indole-3-carboxamido)ethylcarbamate]",> 128 µg/mL,> 128 µg/mL,64 µg/mL,4 µg/mL,4 µg/mL,4 µg/mL,4 µg/mL,4 µg/mL,4 µg/mL,4 µg/mL,4 µg/mL,≤ 2 µg/mL,4 µg/mL,32 µg/mL,64 µg/mL,64 µg/mL,82 ± 4%,0%,80 ± 9%,0%,IC50 ([33]; first value): 4.35 µM; IC50 ([33]; second value): 3.79 µM; inhibition at 10 µM [19]: 87 ± 6%; inhibition at 1 µM [19]: 4%; MIC [20]: 64 µg/mL; MIC [21]: > 128 µg/mL; MIC [22]: > 128 µg/mL; MIC [23]: > 128 µg/mL; MIC [24]: > 128 µg/mL; MIC [25]: 64 µg/mL; MIC [26]: > 128 µg/mL; MIC [27]: > 128 µg/mL; MIC [28]: > 128 µg/mL; MIC [29]: > 128 µg/mL; MIC [30]: 4 µg/mL; MIC [31]: 4 µg/mL; MIC [32]: 4 µg/mL
